Converted amounts (≈) assume the structure as drawn.
Experiments:
Assay type in all cases: functional
Candida albicans = test: Antifungal activity against Candida albicans isolates by broth microdilution method
Candida [1] = test: Antifungal activity against Candida isolates by CLSI methods
Candida [2] = test: Antifungal activity against Candida species infected patients assessed as residual fungal burden at 0.1 mg/kg/day administered as single dose
Candida [3] = test: Antifungal activity against Candida species infected patients assessed as residual fungal burden at 0.6 mg/kg/day administered as single dose
Candida [4] = test: Antifungal activity against Candida isolates
[5] = T>MIC in Candida species infected patients at 25 mg/kg/day administered as four divided doses
Candida [6] = test: Antifungal activity against Candida species infected patients assessed as residual fungal burden at 0.3 mg/kg/day administered as single dose

MIC (Candida albicans) | MIC90 (Candida [1]) | MIC (Candida [4]) | T>MIC [5] | SMILES | log10CFU/g (Candida [2]) | log10CFU/g (Candida [3]) | log10CFU/g (Candida [6])
0.125 µg/mL (≈ 0.968 µM) | 1 µg/mL (≈ 7.75 µM) |  |  | Nc1nc(=O)[nH]cc1F [FLUCYTOSINE] |  |  | 
 |  | ≤ 1 µg/mL | 100% | C[C@@H]1[C@H](O)[C@@H](C)/C=C/C=C/C=C/C=C/C=C/C=C/C=C/[C@H](O[C@@H]2O[C@H](C)[C@@H](O)[C@H](N)[C@@H]2O)C[C@@H]2O[C@](O)(C[C@@H](O)C[C@@H](O)[C@H](O)CC[C@@H](O)C[C@@H](O)CC(=O)O[C@H]1C)C[C@H](O)[C@H]2C(=O)O [AMPHOTERICIN B] | 2.2 | 0.6 | 1

Reference: ChEMBL document CHEMBL1153838, “Optimization of the dosage of flucytosine in combination with amphotericin B for disseminated candidiasis: a pharmacodynamic rationale for reduced dosing” (2007)
